assay: Human HepG2 cell viability assay in 384 well format; type: toxicity, cell-based; design: dose 125 nL, time 70.5 hour; cytotoxicity at 70.5 h: concentration not given beside the values; settings: HepG2 cells, read-out: Inhibition

| SMILES | cytotoxicity at 70.5 h |
| --- | --- |
| CCn1ccnc1CN1C[C@@H](CN2CCCC2)[C@@H](CO)C1 | -0.818% |
| CCC(c1nc(C(C)C)nn1-c1ccncc1C)n1cccn1 (stereo not drawn) | -9.34% |
| COCCN(Cc1cnn(C)c1)c1nc(C)nc2sccc12 | 4.75% |
| Cc1cc(C2CCCN(CCCS(C)(=O)=O)C2)n[nH]1 (stereo not drawn) | -4.49% |
| CCn1ccnc1CN1CCN(Cc2cccc(C#N)c2)CC1 | 21.4% |
| Cc1nn(C)c(C)c1CC(=O)NCc1ccnc(N2CCOCC2)c1 | -6.63% |
| CC(=O)Nc1cccc2c1ccn2CC(=O)Nc1nc[nH]n1 | -2.28% |
| COCCN(C)C(=O)Nc1ccn(-c2cccc(C(F)(F)F)c2)n1 | -2.62% |
| CNC(=O)c1cccc(CCNc2ncc(Br)cn2)c1 | 7.32% |
| COc1ccnc(NC(=O)c2cscn2)c1 | -10.4% |
| CCOCc1ccccc1CNc1ccc2nncn2n1 | -5.87% |
| CCc1cccc(N2CCC(NC(=O)C3CCCO3)CC2)c1 (stereo not drawn) | -3.65% |
| Cc1c[nH]c(CN2CCCCC2CCn2cccn2)c(C)c1=O (stereo not drawn) | -10.2% |
| C[C@@H]1CN(S(=O)(=O)N2CCCCCC2)C[C@@]1(O)C1CCC1 | -8.97% |
| N#Cc1ccccc1C(=O)N1CCC2(CC(=O)NC2=O)C1 (stereo not drawn) | 15.7% |
| COc1cc(N2CCC3(CCCN(C(=O)c4cccnc4)C3)C2)ncn1 (stereo not drawn) | 16.7% |
| CC(c1ccc(Cl)cc1)N1CCN(CCCS(N)(=O)=O)CC1 (stereo not drawn) | 35.8% |
| COCc1nc2cc(NCc3csc(C)n3)ccc2o1 | 3.55% |
| COCCCN1C(=O)CC[C@H]2CN(Cc3ccc4nonc4c3)CC[C@H]21 | -5.42% |
| CSCCCNC(=O)C(c1cccc(F)c1)N(C)C (stereo not drawn) | -4.98% |
| C[C@@H]1CN(C(=O)CCCN2CCCC2)CC[C@@]1(O)C1CCOCC1 | -3.8% |
| COc1ccccc1CNc1ncc(-c2cc(C)no2)c(C(C)C)n1 | -9.02% |
| Cc1cnc(NCC(C)(C)N2CCN(C)CC2)nc1 | -0.355% |

| SMILES | cytotoxicity at 70.5 h |
| --- | --- |
| CC(COc1ccccc1)NCc1nncn1C1CCCCC1 (stereo not drawn) | 7.54% |
| O=C(c1cscn1)N1CCCC(n2cncn2)C1 (stereo not drawn) | -8.94% |
| O=C(c1coc2ccccc12)N1CCS(=O)(=O)CC1 | -5.47% |
| CCOc1cccc(CNC2CCCN(Cc3noc(C)n3)C2)c1 (stereo not drawn) | -12.1% |
| CC(C)n1[nH]c(=O)c2c1NC(=O)CC2c1ccc2ncccc2c1 (stereo not drawn) | 5.19% |
| COCCN1C(=O)CCC12CCN(C(=O)CC1CC1)CC2 | 35.3% |
| CCCS(=O)(=O)C(C)C(=O)Nc1ccc2oc(C3CC3)nc2c1 (stereo not drawn) | -2.1% |
| CCc1nnc(CN(C)c2nc(C3CCCC3)nc3c2cnn3C)o1 | -6.42% |
| Cc1cc(F)ccc1OC1(C(=O)O)CCN(Cc2cccnc2N)CC1 | 0.105% |
| Cc1csc(C2CCCN(C(=O)c3cnc[nH]3)C2)n1 (stereo not drawn) | -0.708% |
| CCC(NC(=O)c1cccc(N2CCCC2=O)c1)c1ccc(OC)cc1 (stereo not drawn) | -4.2% |
| CCN(CC)C(=O)C1CCCN1C(=O)c1cccc(-n2cnnn2)c1 (stereo not drawn) | -4.16% |
| c1cnn(CC2CCCN2Cc2cn3ccsc3n2)c1 (stereo not drawn) | 6.04% |
| O=C(C1=CC2(CCN(CCO)CC2)c2ccccc21)N1CCCC1 | -4.5% |
| COCCN1CCCC2(CCN(c3nc(C)nc4ccsc34)C2)C1=O (stereo not drawn) | -11.8% |
| CC1CN(CC(=O)Nc2nncs2)CCN1c1nccs1 (stereo not drawn) | -9.27% |
| CCOc1ncccc1CNC(=O)NC1CCOc2ccccc21 (stereo not drawn) | -4.63% |
| COc1ccc(N2CCC(N(C)C(=O)Nc3ccncc3)CC2)cc1 | 0.31% |
| O=C(C1COc2ccccc2C1)N(CCO)Cc1ccccc1 (stereo not drawn) | -1.94% |
| COc1cccc(CN2CCc3nc4ccsc4c(=O)n3CC2)c1 | 12.2% |
| Cn1ccc2cc(C(=O)NC3CCOC(C)(C)C3)ccc21 (stereo not drawn) | 7.49% |
| Cc1nn2cccnc2c1C(=O)N1CCCC(n2ccnc2C)C1 (stereo not drawn) | -4.03% |
| CCOCc1ncn2c1CN(S(=O)(=O)c1cccs1)CCC2 | 12.5% |

| SMILES | cytotoxicity at 70.5 h |
| --- | --- |
| O=C(c1cnccn1)N1C[C@@H]2CN(Cc3cccnc3)CCO[C@@H]2C1 | 18.1% |
| CCCc1cc(=O)[nH]c2nnc(SCC(=O)NCCc3ccccc3)n12 | -5.81% |
| O=C(c1ccc2[nH]ccc2c1)N1CCn2cnc(COCC3CC3)c2C1 | -4.35% |
| N#Cc1c(Cl)nsc1NCC1(c2ccccc2)CCC1 | 17.1% |
| COc1ccc(S(=O)(=O)Cc2noc(CC(C)C)n2)cc1 | 5.74% |
| Cn1cnnc1SCC(=O)NC1CC(=O)N(CCc2cccc(Cl)c2)C1 (stereo not drawn) | -7.55% |
| CC/N=c1/c(NC(=O)NCCOC)c(O)oc2ccccc12 | 30.4% |
| O=C(O)c1cc(S(=O)(=O)N2CCOc3ccccc32)ccc1F | 0.682% |
| COc1cccc(C(=O)C2CCCN(c3nccc(N)n3)C2)c1 (stereo not drawn) | -3.78% |
| COCc1cc(NCCc2ccc(S(N)(=O)=O)cc2)n2nccc2n1 | -20.7% |
| CC(C)n1cnnc1CN(C)C(=O)C1CCCN(C2CCN(C)CC2)C1 (stereo not drawn) | -3.47% |
| NC(=O)COc1ccc(CNC(=O)CN2CCc3ccccc32)cc1 | 0.272% |
| CN1CCN(C(=O)c2cnc3c(cnn3C3CCCC3)c2)CC1 | -10% |
| CC(C)c1noc(C(C)N2CCC(c3nc4ccccc4o3)CC2)n1 (stereo not drawn) | -18.9% |
| Cc1ccc(O)c(CN2CCn3nc(C(=O)N4CCCC4)cc3C2)n1 | 0.113% |
| Cc1ccccc1-c1noc(CN2CCc3cncnc3C2)n1 | -11.1% |
| CCC[C@@H]1CN(Cc2c[nH]nc2-c2ccc(F)cc2)C[C@H]1NS(C)(=O)=O | -3.18% |
| Cn1nc2c(c1NC(=O)c1ccc(Cl)s1)CCC2 | -8.38% |
| Cc1c(Br)cccc1C(=O)NC(C)CN1CCCC1=O (stereo not drawn) | 1.84% |
| O=C(NCCc1nnc2n1CCC2)NC1(c2cccc(F)c2)CC1 | 7.47% |
| Cc1ccc(Cl)cc1NC(=O)C1CSc2ncc(C)c(=O)n2C1 (stereo not drawn) | -13.9% |
| Cc1ccc(CN2CCC3(CCN(Cc4ccncc4)CC3)CC2)cc1 | -3.02% |
| CC(C)N1CCC[C@H]1C(=O)NCC1CCN(c2cnn(C)c(=O)c2)CC1 | -8.1% |

| SMILES | cytotoxicity at 70.5 h |
| --- | --- |
| CN(C)C(=O)CO[C@@H]1CN(Cc2ccccc2)[C@@H]2CCCO[C@@H]21 | 6.93% |
| CN(Cc1cscn1)C1CCN(C(=O)OC(C)(C)C)CC1 | 29.5% |
| OCC1(CC2CC2)CCCN(Cc2cnc(N3CCOCC3)nc2)C1 (stereo not drawn) | -5.42% |
| CC(C)c1nnc2n1CCN(C(=O)CN1Cc3ccccc3C1=O)C2 | 4.15% |
| O=C(Cn1ccnc1)N1C[C@@H]2CC[C@H](Oc3ccccc3F)[C@@H]2C1 | 10.9% |
| O=C([C@H]1CN(Cc2ccccc2F)C[C@H]2OCC[C@@H]12)N1CCCO1 | 1.95% |
| Cc1ccc(NC2CCN(C(=O)c3nccc4ccccc34)CC2)nn1 | -4.93% |
| c1cncc(CN2Cc3nccn3CC(Cn3cccn3)C2)c1 (stereo not drawn) | -6.13% |
| CC(C)N1CCO[C@H]2CN(C(=O)Cc3ccsc3)C[C@H]21 | -2.31% |
| Clc1ccccc1-c1nnc(CN2CCCC2Cn2cncn2)o1 (stereo not drawn) | -2.55% |
| CC(C)CN1CCS(=O)(=O)[C@@H]2CCN(S(=O)(=O)c3ccccc3)CC[C@@H]21 | -1.95% |
| COCCCNC(=O)CN(C)C(=O)c1ccc(-n2cccc2)cc1O | -0.626% |
| Cc1ncsc1CN1CCOC(C)(C(=O)N(C)C)C1 (stereo not drawn) | 20% |
| O=C1CC(c2ccc(C(=O)O)cc2)c2ncn(-c3ccc(Cl)cc3)c2N1 (stereo not drawn) | -13% |
| CCOCc1cc(CNC2CCCc3c2cnn3CC)ccc1OC (stereo not drawn) | -1.88% |
| Cc1cc(C)n(-c2ccccc2NC(=O)NCCCN(C)S(C)(=O)=O)n1 | 5.58% |
| COc1ccc(N2CCN(C(=O)[C@@H]3C[C@@H](O)CN3)CC2(C)C)cc1 | 6.62% |
| C[C@H]1CN(c2ccccn2)C[C@@]12CCN(Cc1cccnc1)C2=O | -0.624% |
| CCNC(=O)C(C)NC(=O)c1cnc(-c2ccc(C)cc2C)s1 (stereo not drawn) | 1.57% |
| CCc1nnc2n1CCN(C(C(N)=O)c1ccc(F)cc1)C2 (stereo not drawn) | 26.6% |
| CCN(C)c1ncnc2c1CCN(C(=O)c1cccn1C)CC2 | 21% |
| COc1cccc(NC(=O)C(C)Cn2cc(Cl)cn2)c1 (stereo not drawn) | -7.91% |
| O=S(=O)(C1CC1)N1CCOC2(CCCN(c3cccc(F)c3)C2)C1 (stereo not drawn) | -3.57% |

| SMILES | cytotoxicity at 70.5 h |
| --- | --- |
| Cc1nnc(C(C)Nc2cccc(COCCc3ccccc3)c2)o1 (stereo not drawn) | -8.73% |
| N#Cc1cccnc1NCCNC(=O)N1CCSCC1 | 9.49% |
| Cc1nnc(N(CCC#N)CCC#N)s1 | -5.52% |
| COCC(=O)N1CCC(c2noc3nc(C)cc(C(F)(F)F)c23)CC1 | 24.6% |
| CN(C)C[C@H]1OC[C@@H]2CCN(C(=O)c3cccn3C)C[C@@H]21 | -7.55% |
| Cn1cccc1C(=O)N1CCc2onc(Cn3cccn3)c2C1 | -5.3% |
| CN(C)C(C(=O)NCC1(O)CCCCC1)c1cccc(F)c1 (stereo not drawn) | -2.16% |
| CC(C)=CCN1CCN(C(=O)COc2ccccc2)[C@H]2CS(=O)(=O)C[C@H]21 | 1.61% |
| COCCN1CCN(S(=O)(=O)c2ccccc2)Cc2cccnc21 | -5.54% |
| CC(C1CCN(Cc2cccc(OC(F)F)c2)CC1)N1CCOCC1 (stereo not drawn) | -9.64% |
| CCCN1CCN(C(=O)c2cnccc2C)[C@H]2CS(=O)(=O)C[C@H]21 | -3.96% |
| CC(C)c1nnc2n1CCN(C(=O)CN(C)Cc1ccccc1)C2 | -1.56% |
| CC(c1nc(C2CC2)no1)N(C)Cc1cccc(F)c1 (stereo not drawn) | -2.41% |
| CC(NC(=O)NCCCn1cncn1)c1ccc2c(c1)OCCO2 (stereo not drawn) | -7.07% |
| CCNC(=O)c1ccoc1CN1c2ccccc2CC1C (stereo not drawn) | -5.21% |
| CCn1cc(CNc2ccc(N(C)CCOC)cn2)cn1 | -2.51% |
| Cc1csc(CCNC(=O)N2CCC(NC(=O)OC(C)(C)C)CC2)n1 | -11.5% |
| COc1ccc(Br)cc1CCC(=O)N1CCSCC1 | 8.26% |
| CN(C(=O)NCc1ccncc1)C1CCCN(c2ccccc2)C1=O (stereo not drawn) | -4.3% |
| CN1CCN(C(=O)N2CCCC2)Cc2cccnc21 | -6.35% |
| COCC[C@]1(O)CCN(Cc2nc(C)c(C)s2)C[C@H]1C | -7.5% |

Reference: ChEMBL document CHEMBL3507680, “University of Dundee, Gates Library screen for HepG2 cell viability”
